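All cell lines were grown in 96-well plates and treated with compound for 48 hours. At the GI50, growth is halved. TGI marks complete inhibition of growth.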 Where a SMILES comes first, the peptide text is derived from it. The star is where a group is joined. Fmoc = O=C(OCC1c2ccccc2-c2ccccc21)*; Boc = CC(C)(C)OC(=O)*
How the values were obtained:
Experiment in all cases: DTP human tumour cell line panel, 48 h
A549 NSCLC = system: A549 NSCLC
SF-268 CNS = system: SF-268 CNS
HOP-62 NSCLC = system: HOP-62 NSCLC
RPMI-8226 leukemia = system: RPMI-8226 leukemia
LOX IMVI melanoma = system: LOX IMVI melanoma
MDA-N = system: MDA-N
UACC-257 melanoma = system: UACC-257 melanoma
OVCAR-4 ovarian = system: OVCAR-4 ovarian
HT29 colon = system: HT29 colon
NCI-H23 lung = system: NCI-H23 lung
OVCAR-3 ovarian = system: OVCAR-3 ovarian
SK-MEL-2 melanoma = system: SK-MEL-2 melanoma
NCI/ADR-RES ovarian = system: NCI/ADR-RES ovarian
SNB-19 CNS = system: SNB-19 CNS
A498 renal = system: A498 renal

SMILES	TGI (A549 NSCLC) [µM]	TGI (SF-268 CNS) [µM]	TGI (HOP-62 NSCLC) [µM]	TGI (RPMI-8226 leukemia) [µM]	TGI (LOX IMVI melanoma) [µM]	TGI (MDA-N) [µM]	TGI (UACC-257 melanoma) [µM]	TGI (OVCAR-4 ovarian) [µM]	TGI (HT29 colon) [µM]	TGI (NCI-H23 lung) [µM]	TGI (OVCAR-3 ovarian) [µM]	TGI (SK-MEL-2 melanoma) [µM]	TGI (NCI/ADR-RES ovarian) [µM]	TGI (SNB-19 CNS) [µM]	TGI (A498 renal) [µM]	GI50 (LOX IMVI melanoma) [µM]	GI50 (UACC-257 melanoma) [µM]	GI50 (OVCAR-4 ovarian) [µM]	GI50 (SK-MEL-2 melanoma) [µM]	GI50 (NCI/ADR-RES ovarian) [µM]
CCCC(=O)OC1=C(c2ccccc2)Sc2ccccc2-n2cccc21	> 10	> 10	> 10	> 10	> 10	> 10	> 10	> 10	> 10	> 10										
NC(=O)N=Nc1c2ccccc2n2[nH]ccc12	> 100	> 100	> 100		> 100	> 100	> 100	> 100	> 100	> 100	> 100	> 100	> 100	> 100	> 100					
Cc1ccccc1NC(=O)CC(=O)n1nc(-c2ccccc2)c(N=Nc2ccc([N+](=O)[O-])cc2)c1-c1ccccc1	41.8	> 100	48.3	69.4	46.6		56.4	> 100	24.5	> 100	37.3	> 100		> 100						
CC(C)(C)c1cc2c(O)c(c1)COCc1cc(C(C)(C)C)cc(c1O)COCc1cc(C(C)(C)C)cc(c1O)COC2	> 100		> 100	> 100	> 100		> 100	> 100		> 100	> 100	> 100	> 100	> 100	> 100					
O=C(NC(Cc1ccccc1)P(=O)(O)c1ccccc1)OCc1ccccc1 (centres undefined)	> 100	> 100	> 100	> 100	> 100	> 100	> 100	> 100	> 100	> 100	> 100		> 100	> 100						
NC1=CN(Cc2ccccc2)C2=N/C(=C\c3ccco3)C(=O)N12	> 100	> 100	> 100		> 100	> 100	> 100	> 100	> 100	> 100	> 100	> 100	> 100	> 100	> 100					
CCN(CC)c1ccc2cc(-c3csc(-c4ccc(N(C)C)cc4)n3)c(=O)oc2c1	> 100	> 100	> 100	> 100	> 100	> 100	> 100	> 100	> 100			> 100	> 100	> 100						
CCOC(=O)C1C(=O)c2cccc(OC)c2C2COC(=O)N12 (centres undefined)	> 100	> 100	> 100	> 100	> 100		> 100	> 100	> 100	> 100	> 100	> 100		> 100						
CC(C)(C)OC(=O)NCCCCC(NC(=O)C(Cc1c[nH]c2ccccc12)NC(=O)OCC1c2ccccc2-c2ccccc21)C(=O)O (centres undefined) (Fmoc-Trp-Lys(Boc)-OH; configuration not given here)	> 100	> 100	> 100	67	46.2	> 100	> 100	> 100	> 100	> 100	40.4	54.9	> 100	> 100						
NCCSc1nc(N)c2ncn(C3OC(CO)C(O)C3O)c2n1 (centres undefined)	> 100	> 100	> 100	> 100	> 100		> 100	> 100	> 100	> 100	> 100	> 100		> 100	> 100					
Cc1ccc(S(=O)(=O)N/N=C2\CC3C4CCC3C2C4)cc1 (centres undefined)	> 100	> 100	> 100		> 100	> 100	> 100	> 100	> 100	> 100	> 100	> 100	> 100	> 100	> 100					
Nc1nc2c(ncn2CC(CO)CC(c2ccccc2)P(=O)(O)O)c(=O)[nH]1 (centres undefined)	> 100	> 100	> 100	> 100	> 100		> 100		> 100	> 100	> 100	> 100		> 100	> 100					
CC(=O)Oc1ccc2c3c1[C@@H]1O[C@@H]1c1cccc(c1-3)[C@@H]1O[C@H]21		5.04	3.96		2.02	3.32	> 100	5.48				> 100	3.76	23.1	6.57	0.65	2.75	2.39	3.12	1.4
O=C(CC(C(=O)c1cccs1)c1ccccc1)c1ccccc1O (centres undefined)	> 100	> 35.1	> 48.1	> 100	> 47.4	> 100	> 100	> 64.2	> 100	> 100	> 100	> 100	> 25.3	> 100						
CC(C)[C@H]1NC(=O)[C@H]2N=C(O[C@@H]2C)[C@@H]2CCCN2C(=O)[C@H](Cc2ccccc2)NC(=O)[C@@H]2COC(=N2)[C@@H](Cc2ccccc2)NC(=O)[C@@H]2COC1=N2	> 100	> 100	> 100	> 100	> 100	> 100	> 100	> 100	> 100	> 100	> 100	> 100	> 100	> 100						
CC1CC/C(=C\c2ccc(F)cc2)C2=C1C(c1ccc(F)cc1)n1c(s/c(=C\c3ccc(Cl)cc3)c1=O)=N2 (centres undefined)	> 100	> 100	> 100	> 100	> 100	> 100	> 100	> 100	> 100			> 100		> 100	> 100					
C[Si](C)(C)C#CCOC=C1CC1	> 100	> 100	> 100		> 100	> 100	> 100	> 100	> 100	> 100		> 100	> 100	> 100						
